From ChEMBL document CHEMBL5120938, “Development of BET Inhibitors as Potential Treatments for Cancer: Optimization of Pharmacokinetic Properties” (ACS Med Chem Lett, 2022)

Legend:
[1] = Inhibition of c-MYC expression in human JJN-3R cells measured after 4 hrs; type: functional, cell-based
[2] = AUC in cynomologus monkey at 0.3 mg/kg, po; type: ADME, organism-based, Macaca fascicularis; parameters: dose 0.3 mg/kg, route po; details: cynomolgus monkey, in vivo
[3] = AUC in dog at 0.3 mg/kg, po; type: ADME, organism-based, Canis lupus familiaris; parameters: dose 0.3 mg/kg, route po; details: in vivo
[4] = Half life in cynomologus monkey at 0.1 mg/kg, iv; type: ADME, organism-based, Macaca fascicularis; details: cynomolgus monkey, in vivo
[5] = Volume of distribution in dog at 0.3 mg/kg, po or 0.1 mg/kg, iv; type: ADME, organism-based, Canis lupus familiaris; details: in vivo
[6] = Volume of distribution in mouse at 5 mg/kg, po or 1.75 mg/kg, iv; type: ADME, organism-based; details: in vivo
[7] = Metabolic stability in alamethicin treated Beagle dog liver microsomes assessed as half life pretreated for 5 mins followed by NADPH addition and measured up to 45 mins by LC-MS/MS analysis; type: ADME, Canis lupus familiaris, Microsome; details: time < 50 min
[8] = AUC in mouse xenografted with human BR1077F cells at 3 mg/kg, po QD treated as 5 days on and 2 days off regimen for 2 weeks starting from 26 days post tumor implantation; type: ADME, organism-based; parameters: time 2 weeks, dose 3 mg/kg, route po; details: in vivo
[9] = Metabolic stability in alamethicin treated cynomologus monkey liver microsomes assessed as half life pretreated for 5 mins followed by NADPH addition and measured up to 45 mins by LC-MS/MS analysis; type: ADME, Macaca fascicularis, Microsome; details: cynomolgus monkey, time < 50 min
[10] = Oral bioavailability in dog at 0.3 mg/kg; type: ADME, organism-based, Canis lupus familiaris; details: in vivo
[11] = Efflux ratio of apparent permeability across […] in human Caco-2 cells after 2 hrs by liquid scintillation counting analysis; type: ADME, cell-based; details: caco-2, 2 h
[12] = Metabolic stability in alamethicin treated CD-1 mouse liver microsomes assessed as half life pretreated for 5 mins followed by UDPGA addition and measured up to 45 mins by LC-MS/MS analysis; type: ADME, Microsome; details: time < 50 min
[13] = Metabolic stability in alamethicin treated Beagle dog liver microsomes assessed as half life pretreated for 5 mins followed by UDPGA addition and measured up to 45 mins by LC-MS/MS analysis; type: ADME, Canis lupus familiaris, Microsome
[14] = Half life in mouse at 1.75 mg/kg, iv; type: ADME, organism-based; details: in vivo
[15] = AUC in rat at 5 mg/kg, po; type: ADME, organism-based; parameters: dose 5 mg/kg, route po; details: in vivo
[16] = Oral bioavailability in cynomologus monkey at 0.3 mg/kg; type: ADME, organism-based, Macaca fascicularis; details: cynomolgus monkey, in vivo
[17] = Metabolic stability in alamethicin treated human liver microsomes assessed as half life pretreated for 5 mins followed by UDPGA addition and measured up to 45 mins by LC-MS/MS analysis; type: ADME, Microsome; details: time < 50 min
[18] = Antitumor activity against human BR1077F cells xenografted in mouse assessed as tumor growth inhibition at 3 mg/kg, po QD treated as 5 days on and 2 days off regimen for 2 weeks starting from 26 days post tumor implantation; type: functional; details: 336 h, read-out: TGI
[19] = Metabolic stability in alamethicin treated Sprague-Dawley rat liver microsomes assessed as half life pretreated for 5 mins followed by UDPGA addition and measured up to 45 mins by LC-MS/MS analysis; type: ADME, Microsome; details: time < 50 min
[20] = Metabolic stability in alamethicin treated CD-1 mouse liver microsomes assessed as half life pretreated for 5 mins followed by NADPH addition and measured up to 45 mins by LC-MS/MS analysis; type: ADME, Microsome; details: time < 50 min
[21] = Drug metabolism in human hepatocytes assessed as oxidative metabolite formation at 5 uM measured after 1 hr by LC/UV/MS analysis; type: ADME, cell-based, Hepatocyte
[22] = Volume of distribution in rat at 5 mg/kg, po or 1 mg/kg, iv; type: ADME, organism-based; details: in vivo
[23] = AUC in mouse at 5 mg/kg, po; type: ADME, organism-based; parameters: dose 5 mg/kg, route po; details: in vivo
[24] = Drug metabolism in human hepatocytes assessed as glucuronidation of the compound at 5 uM measured after 1 hr by LC/UV/MS analysis; type: ADME, cell-based, Hepatocyte
[25] = Antiproliferative activity against human JJN-3R cells assessed as inhibition of cell proliferation measured after 72 hrs by MTS assay; type: functional, cell-based
[26] = Metabolic stability in alamethicin treated cynomologus monkey liver microsomes assessed as half life pretreated for 5 mins followed by UDPGA addition and measured up to 45 mins by LC-MS/MS analysis; type: ADME, Macaca fascicularis, Microsome; details: cynomolgus monkey, time < 50 min
[27] = Metabolic stability in alamethicin treated Sprague-Dawley rat liver microsomes assessed as half life pretreated for 5 mins followed by NADPH addition and measured up to 45 mins by LC-MS/MS analysis; type: ADME, Microsome; details: time < 50 min
[28] = Metabolic stability in alamethicin treated human liver microsomes assessed as half life pretreated for 5 mins followed by NADPH addition and measured up to 45 mins by LC-MS/MS analysis; type: ADME, Microsome; details: time < 50 min
[29] = Volume of distribution in cynomologus monkey at 0.3 mg/kg, po or 0.1 mg/kg, iv; type: ADME, organism-based, Macaca fascicularis; details: cynomolgus monkey, in vivo
[30] = Drug metabolism in human hepatocytes assessed as glucuronides formation at 5 uM measured after 2 hrs by LC/UV/MS analysis; type: ADME, cell-based, Hepatocyte
[31] = AUC in mouse at 3 mg/kg, po; type: ADME, organism-based; parameters: dose 3 mg/kg, route po; details: in vivo
[32] = AUC in mouse xenografted with human BR1077F cells at 2 mg/kg, po QD treated as 5 days on and 2 days off regimen for 2 weeks starting from 26 days post tumor implantation; type: ADME, organism-based; parameters: time 2 weeks, dose 2 mg/kg, route po; details: in vivo
[33] = Half life in mouse at 1 mg/kg, iv; type: ADME, organism-based; details: in vivo
[34] = molecular target: Bromodomain-containing protein 3 (Homo sapiens, UniProt Q15059); assay: Inhibition of BRD3 (unknown origin)
Chain of Bromodomain-containing protein 3 (Q15059 whole entry): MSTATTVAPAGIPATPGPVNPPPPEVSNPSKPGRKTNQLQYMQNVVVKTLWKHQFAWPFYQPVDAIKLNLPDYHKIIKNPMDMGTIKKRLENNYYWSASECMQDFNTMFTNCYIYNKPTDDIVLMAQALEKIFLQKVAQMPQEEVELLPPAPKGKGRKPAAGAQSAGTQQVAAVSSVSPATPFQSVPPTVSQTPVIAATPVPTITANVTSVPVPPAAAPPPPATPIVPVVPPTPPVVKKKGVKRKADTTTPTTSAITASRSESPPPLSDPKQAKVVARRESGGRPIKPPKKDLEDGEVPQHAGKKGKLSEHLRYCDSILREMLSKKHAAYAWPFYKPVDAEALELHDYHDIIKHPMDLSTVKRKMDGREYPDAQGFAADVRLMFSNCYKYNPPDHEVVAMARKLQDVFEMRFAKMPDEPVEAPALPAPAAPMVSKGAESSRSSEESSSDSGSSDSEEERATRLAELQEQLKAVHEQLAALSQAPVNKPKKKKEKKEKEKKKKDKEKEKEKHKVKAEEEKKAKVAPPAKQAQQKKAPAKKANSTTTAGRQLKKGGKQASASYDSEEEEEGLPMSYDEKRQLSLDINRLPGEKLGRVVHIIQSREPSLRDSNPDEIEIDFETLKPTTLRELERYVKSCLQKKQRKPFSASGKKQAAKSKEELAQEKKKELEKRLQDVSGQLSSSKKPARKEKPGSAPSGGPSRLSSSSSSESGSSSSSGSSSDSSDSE

[35] = molecular target: Bromodomain-containing protein 2 (Homo sapiens, UniProt P25440); assay: Inhibition of BRD2 (unknown origin)
Chain of Bromodomain-containing protein 2 (P25440 whole entry): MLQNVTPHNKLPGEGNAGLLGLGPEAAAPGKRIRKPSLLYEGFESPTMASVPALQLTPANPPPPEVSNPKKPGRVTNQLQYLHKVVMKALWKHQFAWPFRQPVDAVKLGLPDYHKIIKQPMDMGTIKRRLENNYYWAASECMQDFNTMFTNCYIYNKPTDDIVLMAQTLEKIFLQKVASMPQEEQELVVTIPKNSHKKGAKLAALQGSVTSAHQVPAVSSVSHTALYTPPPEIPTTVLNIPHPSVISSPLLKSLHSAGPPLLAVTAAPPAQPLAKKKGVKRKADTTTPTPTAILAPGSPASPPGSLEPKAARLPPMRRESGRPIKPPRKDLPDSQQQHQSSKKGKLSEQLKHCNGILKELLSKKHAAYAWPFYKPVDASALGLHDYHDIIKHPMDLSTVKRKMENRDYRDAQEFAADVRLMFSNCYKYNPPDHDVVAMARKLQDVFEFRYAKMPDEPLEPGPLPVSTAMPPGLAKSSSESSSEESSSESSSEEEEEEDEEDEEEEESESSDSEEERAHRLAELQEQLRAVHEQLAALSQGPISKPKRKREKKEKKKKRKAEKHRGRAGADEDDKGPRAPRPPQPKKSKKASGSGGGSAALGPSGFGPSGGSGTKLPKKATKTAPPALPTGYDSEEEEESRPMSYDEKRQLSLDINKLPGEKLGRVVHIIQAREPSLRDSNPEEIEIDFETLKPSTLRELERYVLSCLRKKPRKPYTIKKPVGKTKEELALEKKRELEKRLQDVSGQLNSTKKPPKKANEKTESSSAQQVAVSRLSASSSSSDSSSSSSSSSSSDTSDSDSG

[36] = Half life in rat at 1 mg/kg, iv; type: ADME, organism-based; details: in vivo
[37] = Oral bioavailability in rat at 5 mg/kg; type: ADME, organism-based; details: in vivo
[38] = Half life in dog at 0.1 mg/kg, iv; type: ADME, organism-based, Canis lupus familiaris; details: in vivo
[39] = Antitumor activity against human BR1077F cells xenografted in mouse assessed as tumor growth inhibition at 2 mg/kg, po QD treated as 5 days on and 2 days off regimen for 2 weeks starting from 26 days post tumor implantation; type: functional; details: 336 h, read-out: TGI
[40] = Oral bioavailability in mouse at 3 mg/kg; type: ADME, organism-based; details: in vivo
[41] = Volume of distribution in mouse at 3 mg/kg, po or 1 mg/kg, iv; type: ADME, organism-based; details: in vivo

SMILES	IC50 [1] [nM]	AUC [2] [nM·h]	AUC [3] [nM·h]	half-life [4] [h]	Vd [5] [L/kg]	half-life [7] [h]	half-life [9] [h]	bioavailability [10] [%]	Ratio [11]	half-life [12] [h]	AUC [15] [nM·h]	bioavailability [16] [%]	half-life [17] [h]	half-life [19] [h]	half-life [20] [h]	Vd [22] [L/kg]	IC50 [25] [nM]	half-life [26] [h]	half-life [27] [h]	half-life [28] [h]	also measured
Cc1nnn(C)c1-c1cnc2c3ccc(C(C)(C)O)cc3n([C@H](c3ccccc3)C3CCOCC3)c2c1 [EZOBRESIB]	0.7	85	410	2	5.3	0.333	0.167	59	2.6	2	2000	16	1.92	1.02	0.4	4.3	3.6	2	0.6	0.55	Vd [6]: 1.9 L/kg; AUC at 336 h [8]: 2600 nM·h; half-life ([13]; Beagle, liver microsomes, time < 50 min): 2 h; half-life [14]: 1.9 h; inhibition in vivo at 3 mg/kg [18]: 99%; Drug metabolism [21]: Metabolite_Detected; AUC [23]: 18000 nM·h; Drug metabolism [24]: Metabolite_Detected; Vd [29]: 4.2 L/kg
[2H]C([2H])([2H])c1nnn(C)c1-c1cnc2c3cc(F)c(C(C)(C)O)cc3n([C@H](c3ccccc3)C3CCOCC3)c2c1	2	1900	550	4	5.8	0.533	0.167	73	1.8	2	6600	85	2	2	0.683	2.9	6	2	0.767	0.867	Drug metabolism [30]: Metabolite_Notdetected; AUC [31]: 25000 nM·h; AUC at 336 h [32]: 4800 nM·h; t1/2 ([13]; microsomes, 50 min): 2 h; half-life [33]: 3.4 h; IC50 [34]: 1.6 nM; IC50 [35]: 0.2 nM; half-life [36]: 4.1 h; bioavailability [37]: 74%; half-life [38]: 7.6 h; inhibition in vivo at 2 mg/kg [39]: 88%; bioavailability [40]: 100%; Vd [41]: 1.4 L/kg; Vd [29]: 1.3 L/kg
